Laboratory results as given in ChEMBL document CHEMBL1132322, “Paullones, a series of cyclin-dependent kinase inhibitors: synthesis, evaluation of CDK1/cyclin B inhibition, and in vitro antitumor activity” (J Med Chem, 1999).

Tests used:
Experiment in all cases: cells
HCT-116 [1] = assay type: functional; settings: Homo sapiens
Description: The logarithmic molar concentration inhibiting 50% net cell growth was measured on HCT116 (M) colon cancer cell lines.

Tumor Cell line [2] = assay type: functional; settings: Homo sapiens
Tumor Cell line [3] = settings: Homo sapiens, read-out: Log GI50 (converted)
Tumor Cell line [4] = settings: Homo sapiens, read-out: Log GI50 (converted); remark: listed apart in the source
HCT-116 [5] = assay type: functional; settings: Homo sapiens; remark: listed apart in the source
Description: The logarithmic molar concentration inhibiting 50% net cell growth was measured on HCT116 (M)colon cancer cell lines (in experiment 1)

HCT-116 [6] = assay type: functional; settings: Homo sapiens; remark: listed apart in the source
Description: The logarithmic molar concentration inhibiting 50% net cell growth was measured on HCT116 (M)colon cancer cell lines (in experiment 2)

Compound | GI50 (HCT-116 [1]) [µM] | GI50 (Tumor Cell line [2]) [µM] | other results
O=C1Cc2c([nH]c3ccccc23)-c2cc(Br)ccc2N1 | > 100 | 100 | –
COC(=O)CN1C(=O)Cc2c([nH]c3ccc(Br)cc23)-c2ccccc21 | – | – | GI50 (Tumor Cell line [3]): 31.6 µM
O=C1Cc2c([nH]c3ccc([N+](=O)[O-])cc23)-c2ccccc2N1 [ALSTERPAULLONE] | – | – | GI50 (Tumor Cell line [4]): 0.398 µM; GI50 (Tumor Cell line [3]): 0.316 µM
O=C1Cc2c([nH]c3ccc(Cl)cc23)-c2ccccc2N1 | 3.16 | 79.4 | –
CCN1C(=O)Cc2c([nH]c3ccc(Br)cc23)-c2ccccc21 | – | – | GI50 (HCT-116 [5]): > 100 µM; GI50 (HCT-116 [6]): 12.6 µM; GI50 (Tumor Cell line [4]): 25.1 µM; GI50 (Tumor Cell line [3]): 12.6 µM
CN1C(=O)Cc2c([nH]c3ccc(Br)cc23)-c2ccccc21 | – | – | GI50 (Tumor Cell line [4]): 31.6 µM
O=C1Cc2c([nH]c3ccc(Br)cc23)-c2cc(Br)ccc2N1 | – | 100 | –
O=C1Cc2c([nH]c3ccc(Br)cc23)-c2cc(O)c(O)cc2N1 | – | 100 | –
CSC1=Nc2ccccc2-c2[nH]c3ccc(Br)cc3c2C1 | – | – | GI50 (HCT-116 [6]): 1.58 µM
O=C1Cc2c([nH]c3ccc(Br)cc23)-c2ccccc2N1Cc1ccccc1 [PAULLONE] | 20 | – | GI50 (Tumor Cell line [4]): 31.6 µM; GI50 (Tumor Cell line [3]): 100 µM
O=C1Cc2c([nH]c3c(Cl)cccc23)-c2ccccc2N1 | > 100 | 100 | –

Second part, led by results:

GI50 (HCT-116 [1]) [µM] | GI50 (Tumor Cell line [2]) [µM] | Compound | other results
– | 79.4 | COc1cccc2c1NC(=O)Cc1c-2[nH]c2ccccc12 | –
20 | 79.4 | N#Cc1ccc2[nH]c3c(c2c1)CC(=O)Nc1ccccc1-3 [PAULLONE 2] | –
79.4 | 63.1 | CCc1cccc2c3c([nH]c12)-c1ccccc1NC(=O)C3 | –
3.16 | 15.8 | O=C1Cc2c([nH]c3cc(Br)ccc23)-c2ccccc2N1 | –
0.0251 | 0.0631 | CN1CCC(c2c(O)cc(O)c3c(=O)cc(-c4ccccc4Cl)oc23)[C@@H](O)C1 (stereo not given in full) | –
– | 50.1 | O=C1Cc2c([nH]c3c(Br)cccc23)-c2ccccc2N1 | –
15.8 | 31.6 | O=C1Cc2c([nH]c3ccccc23)-c2ccccc2N1 [PAULLONE] | –
6.31 | 10 | ONC1=Nc2ccccc2-c2[nH]c3ccc(Br)cc3c2C1 | –
– | 39.8 | O=C1Cc2c([nH]c3ccc(Br)cc23)-c2ccccc2N1 [KENPAULLONE] | –
